Measured values reported in patent publication US20180230166A1 (Merck Sharp & Dohme Corp., priority 2015, published 2018).

Key:
[1] = cited from earlier work
[2] = Phase III outcomes trial, cited from earlier work
[3] = torcetrapib and atorvastatin concomitantly, compared with atorvastatin alone; cited from earlier work
[4] = target: T1, endogenous CETP from serum (Homo sapiens, UniProt P11597); test: RTA assay in 95% human serum (95% RTA), CETP-catalyzed CE and TG transfer; type: biochemical; conditions: RTA assay in 95% human serum; read-out: IC50
T1 construct: yielding a concentration of approximately 15 nM endogenous CETP in the assay; from tissue; host or cells: human serum (95% of the assay volume)
T1 sequence (P11597 18-493): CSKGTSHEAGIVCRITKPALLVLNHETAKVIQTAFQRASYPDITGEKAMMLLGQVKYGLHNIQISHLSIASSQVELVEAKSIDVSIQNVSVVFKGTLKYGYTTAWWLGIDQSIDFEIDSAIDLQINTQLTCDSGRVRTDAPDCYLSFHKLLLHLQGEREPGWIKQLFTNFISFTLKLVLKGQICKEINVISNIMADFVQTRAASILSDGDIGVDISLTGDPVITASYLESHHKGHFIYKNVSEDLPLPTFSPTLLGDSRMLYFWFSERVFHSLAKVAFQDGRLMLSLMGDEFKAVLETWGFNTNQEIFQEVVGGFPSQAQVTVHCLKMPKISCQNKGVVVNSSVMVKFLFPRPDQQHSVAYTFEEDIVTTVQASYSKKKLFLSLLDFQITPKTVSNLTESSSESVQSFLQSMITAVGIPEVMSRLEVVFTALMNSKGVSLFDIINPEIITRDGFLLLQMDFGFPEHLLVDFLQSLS
Procedure: Reagents and sources are: [3H] cholesteryl oleate (GE #TRK.886), [3H] Triolein (Perkin-Elmer NET-431), Butylated hydroxyl toluene (Aldrich, #D4740-4), DOPC (Sigma, #P6354), Sodium Bromide (Fisher scientific #S255-500), PEG 8000 (Fisher, #BP233-1), and human HDL (Intracel Corp #RP-036).
Both assays measure the transfer of [3H] cholesteryl oleate or [3H] triolein from exogenous LDL to HDL.
Radiolabeled donor particles are generated by first combining 100 μl of 200 μM butylated hydroxyl toluene in CHCl3, 216 μL of 21.57 mM DOPC in EtOH, and either 500 μCi [3H]-triolein (Perkin Elmer #NET-431) or 500 μCi [3H]-cholesteryl oleate (GE #TRK886) in a glass tube. Reagents are mixed, dried under nitrogen, and then resuspended in 2 mL of 50 mM Tris, 27 μM EDTA at pH 7.4. After a brief vortex, the solution is sonicated until clear and mixed with 20 mL of fresh human serum. The mixture is incubated overnight at 37° C. The [3H] labeled LDL substrate is separated at 1.063 g/ml density by sequential ultracentrifugal flotation in NaBr according to the method of Havel, Eder, et al., 1955, and Chapman, Goldstein, et al., 1981. Once isolated the particles are dialyzed 3× in CETP buffer (50 mM Tris, pH 7.4, 100 mM NaCl, 1 mM EDTA). Human HDL is purchased from Intracel and used as the acceptor particles.
Transfer assays are performed in a 96-well v-bottom polypropylene plate. […] 1 μL of each test compound diluted in DMSO is added to 47 μL of assay cocktail per well and incubated at 37° C. for 1 hour. To initiate the transfer reaction, 2 μL radiolabeled LDL is added. After an additional 60 min of incubation at 37° C., the transfer action is terminated by precipitation of LDL with an equal volume of 20% W/V PEG 8000. The plates are centrifuged at 2000 rpm for 30 minutes at 4° C. A 40 μL aliquot of the HDL-containing supernatant is transferred to a Packard Optiplate™ with 200 μL of MicroScint™ 20. After mixing, plates are counted by liquid scintillation. Counts present in the supernatant for blanks (wells containing only HDL acceptor, CETP buffer and DMSO) are subtracted from those containing test compounds and used to correct for non-specific transfer.
For the transfer assay using endogenous CETP from serum (95% RTA), the same procedure is used except that human serum is added such that a final concentration of serum of 95% of the total assay volume is achieved, yielding a concentration of approximately 15 nM endogenous CETP in the assay. This is then combined with HDL and CETP buffer and the reaction proceeds as above and is terminated as described.
Comparison of the counts of samples with inhibitors to an uninhibited (DMSO only) positive control yield a percent inhibition. A plot of percent inhibition vs. log of inhibitor concentration, fit to a Sigmoidal 4 parameter equation is used to calculate IC50.
Starting materials are commercially available or are made using known procedures or as shown below. The examples may be synthesized using the general schemes provided below. The data reported for the examples below were obtained using the RTA assay in 95% human serum. […] When compounds of Formula I are mentioned herein, such compounds include compounds defined generically by Formula I and also the specific examples disclosed herein.

[5] = patients on anacetrapib with baseline statin therapy, compared with patients treated with just a statin

## COc1cc(F)c(C(C)C)cc1-c1ccc(C(F)(F)F)cc1CN1C(=O)O[C@H](c2cc(C(F)(F)F)cc(C(F)(F)F)c2)[C@@H]1C [anacetrapib]
[1]; [5]
  decrease of LDL-C: 40%
  increase of HDL-C: 138%
[1]; patients treated with anacetrapib, DEFINE trial
  increase in mortality: unlikely

## CCC(CC)CC1(C(=O)Nc2ccccc2SC(=O)C(C)C)CCCCC1 [dalcetrapib]
[2]; terminated early
  clinical benefit (interim data): did not show a clinical benefit
[2]
  safety issues: no safety issues detected

## CCOC(=O)N1c2ccc(C(F)(F)F)cc2[C@@H](N(Cc2cc(C(F)(F)F)cc(C(F)(F)F)c2)C(=O)OC)C[C@H]1CC [torcetrapib]
[3]
  incidence of mortality: higher incidence of mortality

## COc1ncc(-c2ccc(C(=O)O)cc2C)cc1-c1ccc(C(F)(F)F)cc1[C@@H]1CC[C@H]2[C@@H](c3cc(C(F)(F)F)cc(C(F)(F)F)c3)SC(=O)N12 [Example 4, 4-{5-[2-{(1R,5S,7aS)-1-[3,5-bis(trifluoromethyl)phenyl]-3-oxotetrahydro-1H-pyrrolo[1,2-c][1,3]thiazol-5-yl}-4-(trifluoromethyl)phenyl]-6-methoxypyridin-3-yl}-3-methylbenzoic acid]
[4]
  IC50: 0.559 µM

## COc1ncc(-c2c(C)cc(C(=O)O)cc2C)cc1-c1ccc(C(F)(F)F)cc1[C@@H]1CC[C@H]2[C@@H](c3cc(F)cc(C(F)(F)F)c3)CC(=O)N12 [Example 17, 4-{5-[2-{(3S,7R,7aS)-7-[3-fluoro-5-(trifluoromethyl)phenyl]-5-oxohexahydro-1H-pyrrolizin-3-yl}-4-(trifluoromethyl)phenyl]-6-methoxypyridin-3-yl}-3,5-dimethylbenzoic acid]
[4]
  IC50: 0.328 µM
